This note sets out measurements from the SangsterLogP compilation.

A short description of this series: method code SF-AS, from DOI: 10.1016/j.jct.2013.01.022. Particulars: pH 7.4.
In turn, `FC(F)(F)c1ccc(NC2=NCCC3(CCCCC3)S2)cc1` showed a logD of 2.45.
In the case of `c1ccc(NC2=NCCC3(CCCCC3)S2)cc1` it was 1.27; in that of `Cc1ccc(NC2=NCCC3(CCCCC3)S2)cc1`, 1.88.
The result for `Cc1ccc(NC2=NCCC3(CCCCC3)S2)cc1Cl` reads 2.54; that for `Brc1ccc(NC2=NCCC3(CCCCC3)S2)cc1`, 2.43; that for `CC(=O)c1ccc(NC2=NCCC3(CCCCC3)S2)cc1`, 1.89.
With `Clc1ccc(NC2=NCCC3(CCCCC3)S2)cc1`, the logD turned out to be 2.4.
`CC(C)c1ccc(NC2=NCCC3(CCCCC3)S2)cc1` came in with a logD of 1.75.
`CCc1ccc(NC2=NCCC3(CCCCC3)S2)cc1` came in with a logD of 2.22.
`O=C(NC1=NCCC2(CCCCC2)S1)c1ccccc1`: the logD was found to be 1.55.

The term logD denotes the decadic logarithm of the distribution of all forms, ionised or not, between an organic phase and buffer at a given pH. A higher logD goes with higher lipophilicity.
